US11446223B2, “Anti-aging composition” (NEOPHARM CO., LTD., priority 2016, dated 2022)

How the values were obtained:
Assay type in all cases: cell-based
[1] = tested on: human fibroblasts; assay: Type-1 collagen synthesis in human fibroblasts (PICP EIA kit); settings: 24 hours
Experimental: N-(1,3-dihydroxy propan-2-yl)-2-ethylhexanamide was added to a culture medium of human fibroblasts (DMEM medium, 10% fetal bovine serum, 1% antibiotics) to confirm the effect of accelerating type-1 collagen synthesis in a cell level. The measurement of the synthesized collagen was qualified using a procollagen type I C-peptide enzyme immunoassay kit (PICP EIA kit).
The human fibroblast culture medium was used to aliquot the human-derived fibroblasts (human fibroblasts) into 6 wells at 2×10^5 cell/well. After cell adhesion was confirmed, the culture medium was treated with 2 ml of N-(1,3-dihydroxy propan-2-yl)-2-ethylhexanamide as an effective component (anti-aging composition) per each well, at a concentration of 20 uM. After the culture medium was cultured in an incubator under a condition of 37° C. and 5% CO2 for 24 hours, type-1 collagen which is related to a wrinkle forming factor was measured in a cell extract. […]
The effect of accelerating type-1 collagen synthesis was confirmed in the same manner as in Example 1, except that the effective component was not used (a negative control). In addition, type-1 collagen synthesis ability relative to the negative control was calculated as a ratio, and illustrated as a rate of increase (see Table 1 and FIG. 1).

[2] = tested on: Artificial skin (EpiDermFT); assay: Collagen synthesis in artificial skin, Masson's Trichrome staining; settings: 100 μl at 1% on artificial skin surface, 24 hours, versus PBS (Comparative Example 2)
Experimental: Artificial skin (EpiDermFT™ from MatTek, Ashland, USA) was purchased, and stabilized in an exclusive medium (EFT-400) for 18 hours. On the surface of the artificial skin, 100 μl of N-(1,3-dihydroxy propan-2-yl)-2-ethylhexanamide as an effective component (anti-aging composition) at a concentration of 1% was applied. After 24 hours, the artificial skin tissue was immobilized with 10% formaldehyde, embedded with paraffin, and sliced at 5 μm to obtain a sliced tissue which was used for confirming the effect of accelerating collagen synthesis (see FIG. 2).
The artificial skin was stabilized in the same manner as in Example 2, and coated with only 100 μl of PBS without an effective component. After 24 hours, the artificial skin tissue was immobilized with 10% formaldehyde, embedded with paraffin, and sliced at 5 μm to obtain a sliced tissue which was used for confirming the effect of accelerating collagen synthesis.

[3] = tested on: human-derived fibroblasts; assay: Toxicity / cell proliferation in human-derived fibroblasts; settings: 20 uM

CCCCC(CC)C(=O)NC(CO)CO (stereo not shown) [Example 1, N-(1,3-dihydroxypropan-2-yl)-2-ethylhexanamide]
Type-1 collagen concentration (20 uM) ([1]; 20 uM compound, cell extract, human fibroblasts): 0.017 | Rate of increase (%) ([1]; type-1 collagen relative to negative control (Comparative Example 1), 20 uM): 242% | effect of accelerating collagen synthesis (Masson's Trichrome staining) [2]: accelerated collagen synthesis much more | toxicity [3]: not toxic
